Test results published in patent US10821098B2, “Treatment using dantrolene” (Lyotropic Therapeutics, Inc., priority 2001, dated 2020).

Columns and labels:
neuronal cells = settings: cited from earlier work
Malignant Hyperthermia = settings: in vivo; cited from earlier work
solubility in water = format: physicochemical
cell culture = settings: cited from earlier work
[1] = system: apoptotic nuclei in the cortex of rats given 5 mg/kg kainic acid; settings: cited from earlier work
dissolution = format: physicochemical
[2] = doses as high as 7.5 mg/kg i.v.; cited from earlier work
rats = settings: intraperitoneally to rats; cited from earlier work
[3] = system: apoptotic nuclei in the cortex of rats given 5 mg/kg kainic acid; settings: quotient A/B as defined in the patent
Description: In the context of this patent, we define “therapeutic index” of a therapeutic drug (or mixture) to be the quotient A/B, where A and B are defined as follows: A is the LD50 (dose yielding 50% lethality) of the drug when given intraperitoneally to rats; and B is the dose of the drug that when given i.p. yields 50% reduction of apoptotic nuclei in the cortex of rats given 5 mg/kg kainic acid, according to the protocol described by Popescu et al. in [J. Cell.

[4] = system: rats subjected to 60 min of CPB; test: recovery model of cardiopulmonary bypass (CPB) in the rat; format: in vivo
Description: For example, three groups of rats may be subjected to 60 min of normothermic (37.5 degrees C.) nonpulsatile cardiopulmonary bypass (CPB) using a roller pump and a membrane oxygenator. Group 1 rats (n=10) receive no treatment. Group 2 rats (n=10) are pretreated with low volume dantrolene IV, 2.5 mg/kg, and Group 3 rats (n=10) are pretreated with low volume dantrolene IV, 5.0 mg/kg. A fourth group, (Group 4) serve as sham operated controls (n=10). Neurologic outcome is assessed on days 1, 3, and 12 after CPB using standardized functional testing. Neurocognitive outcome, defined as the time (or latency) to finding a submerged platform in a Morris water maze (an indicator of visual-spatial learning and memory), is evaluated daily from post-CPB days 3-12. […]

patients = test: neurocognitive testing of patients undergoing coronary artery re-vascularization during cardiopulmonary bypass; format: in vivo, humans; settings: 1.0 mg/kg of 5% colloidal dantrolene; 24 hours and six weeks post-op
Description: Prior to surgery, each patient would be given a battery of nine standard tests designed to measure cognitive function in four broad categories; attention and concentration; verbal memory; abstraction and visual orientation; and figure (numbers) memory. Patients would again administered the same tests 24 hours and six weeks post-operatively. Each assessment would be performed by the same investigator who would be blinded to the patient's study group assignment. At the time of the operation, each patient would be induced of general anesthesia according to a protocol utilizing a modified cardiac/narcotic technique. All agents would be administered on a weight based dose (mg/kg) whenever possible. Volatile anesthetic agents would be administered and regulated by the anesthesiologist via the endotracheal tube to maintain adequate blood and pulse pressures both pre and post bypass, and by the perfusionist during bypass to maintain pressures suitable for adequate tissue perfusion. A standardized protocol by which the operation is to be performed would be designed and applied to each patient enrolled in this study. […]

[5] = system: rats subjected to 60 min of CPB; settings: Ma et al.; cited from earlier work

In the case of `N#Cc1cc2[nH]c(=O)c(=O)[nH]c2cc1[N+](=O)[O-]` [CNQX], the “prevention of kainic-induced neurological damage” value (neuronal cells) is listed as “prevented”.

For `O=C1CN(/N=C/c2ncc(-c3ccc(Br)cc3)o2)C(=O)N1` [azumolene], the “benefit in the treatment of Malignant Hyperthermia (MH)” value (Malignant Hyperthermia) is given as “limited benefit”.

For `O=C1CN(/N=C/c2ccc(-c3ccc([N+](=O)[O-])cc3)o2)C(O)=N1` [dantrolene sodium], the solubility (solubility in water) was < 400 µg/mL.

In the case of `O=C1CN(/N=C/c2ccc(-c3ccc([N+](=O)[O-])cc3)o2)C(O)=N1` [dantrolene], the “toxicity induced by NMDA” value (cell culture) is listed as “inhibits”, the “toxicity induced by glutamate” value (cell culture) is listed as “inhibits” and the “toxicity of quisqualate (QA)” value (cell culture) is listed as “inhibited”. For the same molecule, the “dose yielding 50% reduction of apoptotic nuclei in the cortex” value ([1]; i.p., rats given 5 mg/kg kainic acid) was 10 mg/kg, the “kainic acid-mediated apoptosis mechanism” value ([1]; rat, in vivo) was “inhibits” and the “dissolution compared with the sodium salt” value (dissolution; listed as Dantrolene free acid) was “slower and less reliable”. The “dissolution compared with the sodium salt” value (dissolution; listed as free acid) was “significantly slower and more problematic than that of dantrolene sodium”, the cardiopulmonary depression [2] was “does not cause cardiopulmonary depression” and the “LD50 (dose yielding 50% lethality)” value (rats) was 780 mg/kg. For the same molecule, the “therapeutic index (LD50 / dose for 50% reduction of apoptotic nuclei)” value [3] was 78, the “attenuation of CPB-induced neurologic and neurocognitive dysfunction” value ([4]; 10.0 mg/kg IV 15 min prior to CPB) was “comparable to xenon” and the “neurologic and neurocognitive outcome after CPB” value ([4]; pretreatment IV at both 2.5 mg/kg and 5.0 mg/kg, days 1-12) was “attenuates CPB associated neurologic and neurocognitive impairment”. For the same molecule, the “CPB-induced neurologic and neurocognitive impairment in man” value (patients) was “attenuates CPB-induced neurologic and neurocognitive impairment in man”.

For `[Xe]` [xenon], the “neuroprotection in the rat CPB model” value [5] is given as “protective”.
